In PubChem BioAssay AID1259407 (Chemical Carcinogenesis Research Information System (CCRIS), 2018):
Activity calls are given as the source filed them. The rule behind the calls is not given here.

System: CCRIS mutagenicity, Ames/micronucleus/aberration tests
Assay: CCRIS mutagenicity studies
Conditions: Test System: AMES SALMONELLA TYPHIMURIUM

For `CN(C)P(=O)(N(C)C)N(C)C`, the mutagenic call (Strain/Indicator: TA97, Metabolic Activation: HAMSTER LIVER S-9, AROCLOR 1254 (10 OR 30%), Method: PREINCUBATION) was “inactive; negative”, the mutagenic call (Strain/Indicator: TA97, Metabolic Activation: NONE, Method: PREINCUBATION) was “inactive; negative” and the mutagenic call (Strain/Indicator: TA97, Metabolic Activation: NONE, Method: STANDARD PLATE) was “inactive; negative”. The mutagenic call (Strain/Indicator: TA97, Metabolic Activation: RAT LIVER S-9, AROCLOR 1254 (10 OR 30%), Method: PREINCUBATION) was “inactive; negative”, the mutagenic call (Strain/Indicator: TA97, Metabolic Activation: RAT, LIVER, S-9, AROCLOR 1254, Method: STANDARD PLATE) was “inactive; negative” and the mutagenic call (Strain/Indicator: TA97, Metabolic Activation: RAT, LIVER, S-9, AROCLOR 1254, Method: SUSPENSION) was “active; positive”. For the same compound, the mutagenic call (Strain/Indicator: TA97, Metabolic Activation: S-9, Method: STANDARD PLATE) was “inactive; negative”, the mutagenic call (Strain/Indicator: TA98, Metabolic Activation: HAMSTER LIVER S-9, AROCLOR 1254 (10 OR 30%), Method: PREINCUBATION) was “inactive; negative” and the mutagenic call (Strain/Indicator: TA98, Metabolic Activation: NONE, Method: PREINCUBATION) was “inactive; negative”. For the same compound, the mutagenic call (Strain/Indicator: TA98, Metabolic Activation: NONE, Method: STANDARD PLATE) was “inactive; negative”, the mutagenic call (Strain/Indicator: TA98, Metabolic Activation: RAT LIVER S-9, AROCLOR 1254 (10 OR 30%), Method: PREINCUBATION) was “inactive; negative” and the mutagenic call (Strain/Indicator: TA98, Metabolic Activation: RAT, LIVER, S-9, AROCLOR 1254, Method: STANDARD PLATE) was “inactive; negative”. For the same compound, the mutagenic call (Strain/Indicator: TA98, Metabolic Activation: RAT, LIVER, S-9, AROCLOR 1254, Method: SUSPENSION) was “active; positive”, the mutagenic call (Strain/Indicator: TA98, Metabolic Activation: S-9, Method: STANDARD PLATE) was “inactive; negative” and the mutagenic call (Strain/Indicator: TA100, Metabolic Activation: HAMSTER LIVER S-9, AROCLOR 1254 (10 OR 30%), Method: PREINCUBATION) was “inactive; negative”. The mutagenic call (Strain/Indicator: TA100, Metabolic Activation: NONE, Method: PREINCUBATION) was “inactive; negative”, the mutagenic call (Strain/Indicator: TA100, Metabolic Activation: NONE, Method: STANDARD PLATE) was “inactive; negative” and the mutagenic call (Strain/Indicator: TA100, Metabolic Activation: NONE, Method: SUSPENSION) was “inactive; negative”. For the same compound, the mutagenic call (Strain/Indicator: TA100, Metabolic Activation: RAT LIVER S-9, AROCLOR 1254 (10 OR 30%), Method: PREINCUBATION) was “inactive; negative”, the mutagenic call (Strain/Indicator: TA100, Metabolic Activation: RAT, LIVER, S-9, AROCLOR 1254 (4, 10 OR 30%), Method: PREINCUBATION) was “inactive; negative” and the mutagenic call (Strain/Indicator: TA100, Metabolic Activation: RAT, LIVER, S-9, AROCLOR 1254 (10%), Method: STANDARD PLATE) was “inactive; negative”. For the same compound, the mutagenic call (Strain/Indicator: TA100, Metabolic Activation: RAT, LIVER, S-9, AROCLOR 1254, Method: PREINCUBATION) was “inactive; negative”, the mutagenic call (Strain/Indicator: TA100, Metabolic Activation: RAT, LIVER, S-9, AROCLOR 1254, Method: STANDARD PLATE) was “inactive; negative” and the mutagenic call (Strain/Indicator: TA100, Metabolic Activation: RAT, LIVER, S-9, AROCLOR 1254, Method: SUSPENSION) was “active; positive”. The mutagenic call (Strain/Indicator: TA100, Metabolic Activation: S-9, Method: STANDARD PLATE) was “inactive; negative”, the mutagenic call (Strain/Indicator: TA102, Metabolic Activation: NONE, Method: STANDARD PLATE) was “inactive; negative” and the mutagenic call (Strain/Indicator: TA102, Metabolic Activation: S-9, Method: STANDARD PLATE) was “inactive; negative”.
